Experimental data as given in ChEMBL document CHEMBL1131727, “Synthesis and biological evaluation of alpha-mannosidase inhibitory activity of three deoxy derivatives of mannostatin A” (Bioorg Med Chem Lett, 1999).

Experiment: Compound was tested for the inhibitory activity against alpha-mannosidase

SMILES | IC50
CS[C@@H]1[C@@H](N)[C@@H](O)[C@@H](O)[C@H]1O [MANNOSTATIN A] | 0.24 µM
OCC1NC(O)C(O)C(O)C1O (stereo not given) | 42 µM
CS[C@@H]1[C@@H](N)[C@@H](O)C[C@H]1O | 31 µM
CS[C@H]1[C@H](O)[C@H](O)C[C@@H]1N | > 100 µM
CS[C@H]1C[C@H](O)[C@H](O)[C@@H]1N | 28 µM
